Patent publication US7553861B2, “Dipeptidyl peptidase-IV inhibitors” (Alantos Pharmaceuticals Holding, Inc., priority 2005, dated 2009)

The compounds below were run against T1, DPP-IV (Homo sapiens, UniProt P27487) (assay: Assay for determining DP-IV inhibition (fluorometric, Gly-Pro-AMC substrate)). Settings: Inhibition of DPP-IV, K(i) calculated from IC(50) with IC(50)=K(i)(1+[S]/Km), pH 8.0.
T1 construct: purchased R&D Systems GmbH, Germany
Assay type: biochemical
Experimental: The inhibitory activity of compounds against DPP-IV can be determined by in vitro assay systems, which are themselves well established in the art. The assay results given in Table 5 were obtained according to the following method, employing a modified version of the assay described by Leiting et al., in an article entitled “Catalytic properties and inhibition of proline-specific dipeptidyl peptidases II, IV and VII” in Biochem. J. Vol. 371, pages 525-532 (2003):
DPP-IV activity was determined fluorometrically with Gly-Pro-AMC (where AMC stands for 7-amido-4-methylcoumarin, Bachem AG, Switzerland) as substrate. The reaction mixture contained 10 μl of 1 ng/μl DPP-IV (R&D Systems GmbH, Germany) and 80 μl of 25 mM Tris/HCl buffer, pH 8.0. Compounds were supplied as DMSO stock solutions and diluted in assay buffer to a maximal DMSO concentration of 1% in the assay. Prior to start of the reaction, the mixture was incubated for 30 min at room temperature. The reaction was started by addition of 10 μl of 100 μM substrate solution.
The fluorescence intensity was measured at excitation and emission wavelengths of 355 and 460 nm, respectively, in a FluoStar Galaxy Multiwell Plate (BMG Labtech, Germany). Fluorescence was determined 3 and 4 minutes after start of reaction and increase in fluorescence was used for determination of enzymatic activity. IC(50) values of tested compounds were determined via plotting enzymatic activity versus concentration of test compound and determining the concentration of test compound which yields a 50% inhibition of enzymatic activity.
K(i) values were calculated using the Michaelis-Menten equation for competitive inhibition: IC(50)=K(i)(1+[S]/Km)

T1 sequence (P27487 whole entry): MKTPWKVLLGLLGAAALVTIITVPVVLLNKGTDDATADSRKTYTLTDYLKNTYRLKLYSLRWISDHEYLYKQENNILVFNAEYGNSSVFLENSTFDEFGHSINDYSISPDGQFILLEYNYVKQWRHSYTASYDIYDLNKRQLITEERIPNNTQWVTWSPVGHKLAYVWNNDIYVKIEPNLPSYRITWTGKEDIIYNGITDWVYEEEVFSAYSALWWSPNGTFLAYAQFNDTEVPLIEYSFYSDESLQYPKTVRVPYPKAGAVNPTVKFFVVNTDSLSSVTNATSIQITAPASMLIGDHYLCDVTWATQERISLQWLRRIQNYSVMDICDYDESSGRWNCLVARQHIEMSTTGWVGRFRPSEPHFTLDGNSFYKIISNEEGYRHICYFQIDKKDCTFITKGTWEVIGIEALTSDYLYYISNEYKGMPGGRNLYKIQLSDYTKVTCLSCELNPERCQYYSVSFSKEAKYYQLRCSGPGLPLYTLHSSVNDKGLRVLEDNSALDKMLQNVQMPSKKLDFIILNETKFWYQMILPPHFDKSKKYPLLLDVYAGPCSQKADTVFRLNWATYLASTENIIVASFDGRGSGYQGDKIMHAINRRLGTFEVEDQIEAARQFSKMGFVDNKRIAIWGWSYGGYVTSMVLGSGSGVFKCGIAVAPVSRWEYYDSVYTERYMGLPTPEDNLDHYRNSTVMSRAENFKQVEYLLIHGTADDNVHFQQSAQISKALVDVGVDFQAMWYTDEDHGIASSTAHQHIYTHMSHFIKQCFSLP

Row | Structure (SMILES) | Ki [nM]
1 | C[C@@H](c1ccc(F)cc1)N1C(=O)[C@@H]2CC1CN2C[C@H](N)C(=O)N1CCSC1 [Example 50] | 6 to 50
2 | N#C[C@@H]1CCCN1C(=O)[C@@H](N)CN1C(=O)[C@@H]2C[C@H]1CN2S(=O)(=O)c1cccs1 [Example 66] | 6 to 50
3 | N#C[C@@H]1CCCN1C(=O)CNCCC1(O)c2ccccc2CCc2ccccc21 [Example 10] | 51 to 500
4 | CC(C)NC(=O)c1ccc2c(c1)CCc1cc(C(=O)NC(C)C)ccc1C2(C[C@H](C)NCC(=O)N1CCC[C@H]1C#N)c1nn[nH]n1 [Example 31] | 6 to 50
5 | CC(C)(CNC1c2ccccc2CCc2ccccc21)NCC(=O)N1CCC[C@H]1C#N [Example 3] | 500 to 30000
6 | N#C[C@@H]1CCCN1C(=O)CNCC(=O)N1c2ccccc2CCc2ccccc21 [Example 5] | 500 to 30000
7 | C[C@@H](CN1C[C@@H]2C[C@H]1C(=O)N2Cc1cccc(F)c1)NCC(=O)N1CCC[C@H]1C#N [Example 26] | 51 to 500
8 | N#C[C@@H]1CCCN1C(=O)CNCC=C1c2ccccc2CCc2ccccc21 [Example 11] | 51 to 500
9 | N#C[C@@H]1CCCN1C(=O)CNCCN1c2ccccc2C=Cc2ccccc21 [Example 7] | 51 to 500
10 | C[C@@H](CC1(c2noc(C(F)(F)F)n2)c2ccc(C(=O)N(C)C)cc2CCc2cc(C(=O)N(C)C)ccc21)NCC(=O)N1CCC[C@H]1C#N [Example 40] | 500 to 30000
11 | Cc1ccc(S(=O)(=O)NC(=O)N2C[C@@H]3C[C@H]2C(=O)N3C[C@H](N)C(=O)N2CCC[C@H]2C#N)cc1 [Example 74] | 51 to 500
12 | N#C[C@@H]1CCCN1C(=O)CNC1CN(C2c3ccccc3CCc3ccccc32)C1 [Example 14] | 500 to 30000
13 | N#C[C@@H]1CCCN1C(=O)[C@@H](N)CN1C(=O)[C@@H]2C[C@H]1CN2C(=O)c1cnccn1 [Example 71] | 6 to 50
14 | N#C[C@@H]1CCCN1C(=O)CNCCC1(C(N)=O)c2ccccc2CCc2ccccc21 [Example 17] | 6 to 50
15 | N#C[C@@H]1CCCN1C(=O)[C@@H](N)CN1C[C@@H]2C[C@H]1CN2c1cccc(F)c1 [Example 78] | 6 to 50
16 | C[C@@H](CC1(C(N)=O)c2ccc(C(=O)N(C)C)cc2CCc2cc(C(=O)N(C)C)ccc21)NCC(=O)N1CCC[C@H]1C#N [Example 39] | 6 to 50
17 | N#C[C@@H]1CCCN1C(=O)CNC1c2ccccc2CCc2ccccc21 [Example 2] | 500 to 30000
18 | C[C@H](CC1(C(N)=O)c2ccccc2CCc2ccccc21)NCC(=O)N1CCC[C@H]1C#N [Example 19] | 6 to 50
19 | N#C[C@@H]1CCCN1C(=O)CNC1c2ccc(Cl)cc2CCc2cccnc21 (stereo partly drawn) [Example 15] | 500 to 30000
20 | N#C[C@@H]1CCCN1C(=O)CNC1CCN(C2c3ccccc3CCc3ccccc32)CC1 [Example 12] | 51 to 500
21 | N#C[C@@H]1CCCN1C(=O)CNCC1c2ccccc2CCc2ccccc21 [Example 4] | 500 to 30000
22 | N#C[C@@H]1CCCN1C(=O)CNCCNC1c2ccccc2CCc2cccnc21 (stereo partly drawn) [Example 21] | 51 to 500
23 | N#C[C@@H]1CCCN1C(=O)CNCCC1(c2nn[nH]n2)c2ccccc2CCc2ccccc21 [Example 23] | 6 to 50
24 | COC(=O)c1sccc1S(=O)(=O)N1C[C@@H]2C[C@H]1C(=O)N2C[C@H](N)C(=O)N1CCC[C@H]1C#N [Example 68] | 6 to 50
25 | N#C[C@@H]1CCCN1C(=O)[C@@H](N)CN1C(=O)[C@@H]2C[C@H]1CN2C(=O)CC1c2ccccc2C=Cc2ccccc21 [Example 72] | < 6
26 | N#C[C@@H]1CCCN1C(=O)[C@@H](N)CN1C(=O)[C@@H]2C[C@H]1CN2C(=O)Cc1cccs1 [Example 70] | 6 to 50
27 | N#C[C@@H]1CCCN1C(=O)[C@@H](N)CN1C[C@@H]2C[C@H]1CN2C(=O)Cc1cccs1 [Example 76] | 6 to 50
28 | CC(C)(c1ccc(F)cc1)N1C(=O)[C@@H]2CC1CN2C[C@H](N)C(=O)N1[C@H](C#N)C[C@@H]2C[C@@H]21 [Example 62] | < 6
29 | N#C[C@@H]1CCCN1C(=O)CNCCNC1c2ccc(Cl)cc2CCc2cccnc21 (stereo partly drawn) [Example 20] | 51 to 500
30 | N#C[C@@H]1CCCN1C(=O)CNCCC1(c2nn[nH]n2)c2cc(F)ccc2CCc2ccc(C(N)=O)cc21 (stereo partly drawn) [Example 45] | 6 to 50

Other lines, results leading:

Row | Ki [nM] | Structure (SMILES)
31 | < 6 | N#C[C@@H]1CCCN1C(=O)[C@@H](N)CN1C(=O)[C@@H]2C[C@H]1CN2S(=O)(=O)c1ccsc1 [Example 67]
32 | < 6 | N#C[C@@H]1C[C@@H]2C[C@@H]2N1C(=O)[C@@H](N)CN1CC2C[C@H]1C(=O)N2Cc1cc(F)cc(F)c1 [Example 52]
33 | < 6 | N#Cc1cccc(CN2C(=O)[C@@H]3CC2CN3C[C@H](N)C(=O)N2[C@H](C#N)C[C@@H]3C[C@@H]32)c1 [Example 54]
34 | < 6 | C[C@@H](CC1(c2nn[nH]n2)c2ccc(C(=O)N3CCC3)cc2CCc2cc(C(=O)N3CCC3)ccc21)NCC(=O)N1CCC[C@H]1C#N [Example 32]
35 | < 6 | C[C@@H](CC1(C(N)=O)c2ccccc2CCc2ccccc21)NCC(=O)N1CCC[C@H]1C#N [Example 18]
36 | < 6 | CNC(=O)c1ccc2c(c1)CCc1cc(C(=O)NC)ccc1C2(CCNCC(=O)N1CCC[C@H]1C#N)c1nn[nH]n1 [Example 35]
37 | < 6 | C[C@@H](CC1(c2nn[nH]n2)c2ccc(C(=O)N(C)C)cc2CCc2cc(C(=O)N(C)C)ccc21)NCC(=O)N1CCC[C@H]1C#N [Example 29]
38 | < 6 | C[C@@H](c1ccc(F)cc1)N1C(=O)[C@@H]2CC1CN2C[C@H](N)C(=O)N1CCC[C@H]1C#N [Example 57]
39 | < 6 | C[C@@H](c1ccc(F)cc1)N1C(=O)[C@@H]2CC1CN2C[C@H](N)C(=O)N1[C@H](C#N)C[C@@H]2C[C@@H]21 [Example 58]
40 | < 6 | CC(C)(c1ccc(F)cc1)N1C(=O)[C@@H]2CC1CN2C[C@H](N)C(=O)N1CCC[C@H]1C#N [Example 59]
41 | < 6 | N#C[C@@H]1CCCN1C(=O)[C@@H](N)CN1CC2C[C@H]1C(=O)N2Cc1ccc(C(N)=O)cc1 [Example 61]
42 | < 6 | CCNC(=O)c1ccc2c(c1)CCc1cc(C(=O)NCC)ccc1C2(C[C@H](C)NCC(=O)N1CCC[C@H]1C#N)c1nn[nH]n1 [Example 30]
43 | < 6 | C[C@H](c1ccc(F)cc1)N1C(=O)[C@@H]2CC1CN2C[C@H](N)C(=O)N1CCC[C@H]1C#N [Example 56]
44 | < 6 | N#C[C@@H]1CCCN1C(=O)CNCCC1(c2nn[nH]n2)c2ccc(F)cc2CCc2ccc(F)cc21 (stereo partly drawn) [Example 24]
45 | < 6 | COC(=O)c1ccc2c(c1)CCc1cc(C(=O)OC)ccc1C2(C[C@H](C)NCC(=O)N1CCC[C@H]1C#N)c1nn[nH]n1 [Example 43]
46 | < 6 | N#C[C@@H]1CCCN1C(=O)[C@@H](N)CN1C[C@@H]2C[C@H]1CN2S(=O)(=O)c1cccc(F)c1 [Example 77]
47 | < 6 | N#C[C@@H]1CCCN1C(=O)[C@@H](N)CN1CC2C[C@H]1C(=O)N2Cc1cccc(C(N)=O)c1 [Example 60]
48 | < 6 | N#Cc1cccc(CN2C(=O)[C@@H]3CC2CN3C[C@H](N)C(=O)N2CCC[C@H]2C#N)c1 [Example 53]
49 | < 6 | C[C@@H](CC1(c2nn[nH]n2)c2ccc(C(N)=O)cc2CCc2cc(C(N)=O)ccc21)NCC(=O)N1CCC[C@H]1C#N [Example 27]
50 | < 6 | N#C[C@@H]1CCCN1C(=O)[C@@H]1C[C@H](N2C[C@@H]3C[C@H]2C(=O)N3Cc2cccc(F)c2)CN1 [Example 63]
51 | < 6 | N#C[C@@H]1CCCN1C(=O)[C@@H](N)CN1C[C@@H]2C[C@H]1C(=O)N2Cc1cccc(F)c1 [Example 48]
